For series [1], the system named is rat spleen cells. Format: cell-based.
In series [2] the target is T1, human TLR7 (Homo sapiens, UniProt Q9NYK1).
T1 construct: expressed in transfected cells; host or cells: HEK293 cell line stably expressing the pNiFty2-SEAP reporter plasmid
T1 sequence (Q9NYK1 27-1049): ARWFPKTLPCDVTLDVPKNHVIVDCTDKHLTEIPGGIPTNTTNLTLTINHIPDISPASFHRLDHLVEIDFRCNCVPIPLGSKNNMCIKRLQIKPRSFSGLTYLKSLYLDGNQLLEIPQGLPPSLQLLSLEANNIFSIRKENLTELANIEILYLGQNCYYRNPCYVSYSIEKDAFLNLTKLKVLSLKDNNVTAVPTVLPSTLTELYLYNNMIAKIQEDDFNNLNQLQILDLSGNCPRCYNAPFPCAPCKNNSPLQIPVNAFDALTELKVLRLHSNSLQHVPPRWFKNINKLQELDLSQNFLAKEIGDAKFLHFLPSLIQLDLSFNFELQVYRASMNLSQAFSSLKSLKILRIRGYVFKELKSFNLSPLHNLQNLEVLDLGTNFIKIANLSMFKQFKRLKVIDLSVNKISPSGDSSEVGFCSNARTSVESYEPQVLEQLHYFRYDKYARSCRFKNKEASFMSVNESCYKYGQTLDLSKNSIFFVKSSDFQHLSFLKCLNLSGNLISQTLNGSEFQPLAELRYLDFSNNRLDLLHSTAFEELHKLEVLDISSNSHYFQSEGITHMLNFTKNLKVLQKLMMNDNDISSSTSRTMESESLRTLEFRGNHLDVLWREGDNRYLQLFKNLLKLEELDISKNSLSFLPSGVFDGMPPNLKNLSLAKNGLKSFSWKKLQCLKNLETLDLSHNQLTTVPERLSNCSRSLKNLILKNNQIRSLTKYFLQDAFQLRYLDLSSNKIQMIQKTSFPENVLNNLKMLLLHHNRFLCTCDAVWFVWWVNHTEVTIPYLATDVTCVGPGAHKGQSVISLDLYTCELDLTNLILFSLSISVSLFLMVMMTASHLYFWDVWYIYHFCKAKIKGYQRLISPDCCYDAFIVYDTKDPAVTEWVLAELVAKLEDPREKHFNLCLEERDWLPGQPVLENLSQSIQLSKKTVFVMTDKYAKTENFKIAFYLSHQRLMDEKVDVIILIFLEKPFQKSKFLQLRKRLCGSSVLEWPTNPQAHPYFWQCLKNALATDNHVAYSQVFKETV
In words: Human TLR7 assay (HEK293 SEAP reporter). The settings on record: minimal effective concentration to induce SEAP release; HEK293 with recombinant human TLR7, overnight incubation at 37° C., 0.1% DMSO. Format: cell-based. The text has this:
Recombinant human TLR7 was stably expressed in a HEK293 cell line already stably expressing the pNiFty2-SEAP reporter plasmid; integration of the reporter gene was maintained by selection with the antibiotic zeocin. The most common variant sequence of human TLR7 (represented by the EMBL sequence AF240467) was cloned into the mammalian cell expression vector pUNO and transfected into this reporter cell-line. Transfectants with stable expression were selected using the antibiotic blasticidin. In this reporter cell-line, expression of secreted alkaline phosphatase (SEAP) is controlled by an NFkB/ELAM-1 composite promoter comprising five NFkB sites combined with the proximal ELAM-1 promoter. TLR signaling leads to the translocation of NFkB and activation of the promoter results in expression of the SEAP gene. TLR7-specific activation was assessed by determining the level of SEAP produced following overnight incubation of the cells at 37° C. with the standard compound in the presence of 0.1% (v/v) dimethylsulfoxide (DMSO). Concentration dependent induction of SEAP production by compounds was expressed as the minimal effective concentration of compound to induce SEAP release (pMEC).

A short description of series [3]: Solubility testing. The note with it: aqueous buffer, thermodynamic from solid; 0.1 M phosphate buffer, shaken overnight at 20° C., HPLC/UV; Examples of the invention. Format: physicochemical. As to the method: Saturated solutions for determining the solubility were prepared by placing about 0.3-3.0 ml of 0.1 M phosphare buffer in glass screw-top sample tubes along with some of the test compound. The tubes were then shaken overnight at constant temperature (20° C.). After shaking, undissolved material should be present in the solution, and more test compound should be added and shaking continued if this is not the case. The samples were then transferred to a centrifuge tube and centrifuged using a Heraeus Biofuge Fresco centrifuge at 13000 rpm for 30 minutes. The supernatant was then removed, placed in a new centrifuge tube and centrifuged again for 30 minutes at 13000 rpm. The undissolved material formed a pellet at the bottom of the tube and the liquid above the pellet was removed and was ready for assaying. The solution was then analysed using HPLC with UV quantification. A standard was also prepared by accurately weighing a sample of the test compound and dissolving it in a suitable volume of a solvent that will dissolve it completely (typically, DMSO, ethanol or methanol). This sample was then analysed by HPLC/UV.
The solubility was calculated from the observed peak areas in the HPLC/UV chromatograms along with corrections for any dilutions of the sample and differences in injection volumes. The following equation was used: […]

Molecules are shown by their SMILES. Converted amounts (≈) assume the structure as drawn.

For orientation: solubility means the dissolved amount per volume that the medium holds.

As for `CCCCOc1nc(N)c2[nH]c(=O)n(CCCN(CCCNC)Cc3cccc(CC(=O)OC)c3)c2n1` [Example 5, Methyl [3-({[3-(6-amino-2-butoxy-8-oxo-7,8-dihydro-9H-purin-9-yl)propyl][3-(methylamino)propyl]amino}methyl)phenyl]acetate], the “Log MEC” value in series [1] is 9.5. The pMEC in series [2] is reported as 7.2. In series [3], this molecule came in with a solubility of 1820 µg/mL (≈ 3540 µM).

Consider `CCCCOc1nc(N)c2[nH]c(=O)n(CCCN(CCCN3CCN(C)CC3)Cc3cccc(CC(=O)OC)c3)c2n1` [Example 3, Methyl [3-({[3-(6-amino-2-butoxy-8-oxo-7,8-dihydro-9H-purin-9-yl)propyl][3-(4-methylpiperazin-1-yl)propyl]amino}methyl)phenyl]acetate], for which, in series [1], the “Log MEC” value amounted to 9.5. For the same molecule, the pMEC in series [2] is reported as 7.7. Also, the solubility in series [3] turned out to be 850 µg/mL (≈ 1460 µM).

Turning to `CCCCOc1nc(N)c2[nH]c(=O)n(CCCCN(CCCN3CCN(C)CC3)Cc3cccc(CC(=O)OC)c3)c2n1` [Example 6, Methyl [3-({[4-(6-amino-2-butoxy-8-oxo-7,8-dihydro-9H-purin-9-yl)butyl][3-(4-methylpiperazin-1-yl)propyl]amino}methyl)phenyl]acetate], in series [1], the “Log MEC” value was 9.0. For the same molecule, the solubility in series [3] turned out to be 1210 µg/mL (≈ 2030 µM).

Take `CCCCOc1nc(N)c2[nH]c(=O)n(CCCN(CCCN(C)C)Cc3cccc(CC(=O)OC)c3)c2n1` [Example 1, Methyl [3-({[3-(6-amino-2-butoxy-8-oxo-7,8-dihydro-9H-purin-9-yl)propyl][3-(dimethylamino)propyl]amino}methyl)phenyl]acetate]: in series [1], the “Log MEC” value is recorded as 9.5. Further, in series [3], the solubility was found to be 980 µg/mL (≈ 1860 µM).

As for `CCCCOc1nc(N)c2[nH]c(=O)n(CCCN(CCN(C)C)Cc3cccc(CC(=O)OC)c3)c2n1` [Example 4, Methyl [3-({[3-(6-amino-2-butoxy-8-oxo-7,8-dihydro-9H-purin-9-yl)propyl][2-(dimethylamino)ethyl]amino}methyl)phenyl]acetate], the “Log MEC” value in series [1] is 9.5. In series [3], the solubility is 830 µg/mL (≈ 1620 µM).

On to `CCCCOc1nc(N)c2[nH]c(=O)n(CCCN(CCCN3CCCC3)Cc3cccc(CC(=O)OC)c3)c2n1` [Example 2, Methyl (3-{[[3-(6-amino-2-butoxy-8-oxo-7,8-dihydro-9H-purin-9-yl)propyl](3-pyrrolidin-1-ylpropyl)amino]methyl}phenyl)acetate], for which the “Log MEC” value in series [1] was 9.5. Besides, in series [2], the pMEC is reported as 7.4. The solubility in series [3] amounted to 1940 µg/mL (≈ 3500 µM).

These data come from patent US20090143400A1, “PURINE DERIVATIVES HAVING IMMUNO-MODULATING PROPERTIES” (priority 2005, published 2009).
